Measurements reported in patent US11977028B2, “Mechanical-bond-induced exciplex fluorescence” (Northwestern University, priority 2020, dated 2024).

Legend:
[1] = Absorption and photoluminescence spectroscopy in solution; assay type: physicochemical; details: for τ (emission lifetime): 405 nm excitation; for absorption band (higher-energy band of the anthracene moiety) / absorption, vibronic peak of the anthracene moiety (lower-energy): high dilution; for emission band, vibronic peaks of the anthracene moiety: fluorescence spectroscopy, data not shown
Source text: The close proximity of the anthracene units in the mechanically interlocked cyclophanes was expected to give rise to remarkable optical properties distinct from those of the free cyclophanes. We explored the absorption and fluorescence properties of all compounds at high dilution (4×10^−7 M) to avoid reabsorption processes^40 and aggregation effects.^17 All of the optical parameters are summarized in Tables 1 and 2. Initially, we explored the influence of the pyridine/pyridinium units on the optical properties of both ^2,6AnBox^4+ and ^9,10AnBox^4+ cyclophanes. The presence of two pyridinium units within the linker dramatically affect the optical properties of the anthracene moiety. Although ^2,6AnBPY (FIG. 5C) and ^9,10AnBPY display^41 characteristic vibronic peaks associated with the anthracene moiety at 290 and 400 nm, ^2,6AnDB^2+ and ^9,10AnDB^2+ display a shift of the band at 290 to 330 nm (FIG. 5A) and the emergence of a new featureless broad band at 450 nm associated with CT from the anthracene moiety to the pyridinium unit. It is noteworthy that phenylene-bridged bipyridyl linkers (ExBIPY) display^35 a single absorption peak at 325 nm in MeCN, while the anthracene moiety leads to the emergence of some push-pull D-A character.
All reagents were purchased from commercial suppliers (Aldrich or Fisher) and used without further purification. Anthracene derivatives, 9,10-bis(4-pyridyl)anthracene (^9.^10AnBPY) and 2,6-bis(4-pyridyl)anthracene (^2,6AnBPY) were synthesized following^1,2 reports in the literature. All reactions and manipulations were carried out under a dry N2 atmosphere using standard Schlenk. Thin-layer chromatography (TLC) was performed on silica gel 60 F254 TLC plates (Merck). Column chromatography was carried out using CombiFlash® Automation Systems (Teledyne ISCO) employing both normal phase (RediSep Rf Gold® Normal-Phase Silica) and reverse phase (RediSep Rf Gold® Reversed-phase C18). […] All the spectra were baseline-corrected with a MeCN blank sample. The photoluminescence spectra of all samples were obtained with a Fluorolog-3 spectrafluorometer (Horiba Jobin Yvon) in a 2-mm quartz cuvette with 3-nm slit width and a front-phase geometry. The time-correlated single photon counting setup is described elsewhere.^3 Nuclear magnetic resonance (NMR) spectra were recorded on a Bruker Avance III 500 and 600 MHz spectrometers, with working frequencies of 500 and 600 MHz (′H NMR) and 125 MHz (^13C NMR), respectively. Chemical shifts are reported in ppm relative to the signals corresponding to the residual non-deuterated solvents (CD3CN: δ1−1=1.94 ppm and δC=1.32 ppm). High-resolution mass spectra (HRMS) were measured on an Agilent 6210 Time of Flight (TOF) LC-MS, using an ESI source, coupled with Agilent 1100 HPLC stack, using direct infusion (0.6 mL min ^−1). The binding constants were determined using this link: website http://supramolecular.org.^4

[2] = 1H NMR titration of guests into the ^2,6AnBox^4+ cavity (binding constant); details: 1H NMR titration in CD3CN; for binding constant Ka: high concentration of salt (saturated with KPF6, 140 mM); for association constant Ka: without salt
Source text: The cavity of ^2,6AnBox^4+ is able to bind an anthracene molecule in a face-to-face manner as a result of [π . . . π] interactions. The formation of anthracene⊂^2,6AnBox^4+ (An⊂^2,6AnBox^4+) was confirmed by ^1H NMR titration in CD3CN. […] Further evidence for the formation of the 1:1 complex (anthracene⊂^2,6AnBox^4+) came from XRD analysis. […] It is remarkable that, upon addition of the anthracene guest to the cavity of ^2,6AnBox^4+, a tubular superstructure is formed along the c-axis, whereas along the b-axis, face-to-face [π . . . π] stacks form between the anthracene units. Apparently, the long-range [π . . . π] distances of 3.5 Å between the anthracene units are superstructure-directing in anthracene⊂^2,6AnBox^4+ instead of the anthracene-pyridinium DA interactions. The formation of the anthracene⊂^2,6AnBox^4+ complex implies that [π . . . π] interactions between the anthracene units can be sufficient to overcome the Coulombic repulsion and form the homo[2]catenane, ^2,6AnHC.8PF6.
Preparation of ^2,6AnHC.8PF6 was achieved following two synthetic procedures which consisted of mixing ^2,6AnBox.4PF6 with its precursors ^2,6AnDB.2PF6, and ^2,6AnBPY in the absence (Protocol I) or presence (Protocol II) of tetrabutylammonium hexafluorophosphate (TBAPF6). See Scheme 6. Our attempts to prepare ^2,6AnHC.8PF6 following Protocol I produced very low yields (<5%) of the catenane.
In order to evaluate whether the addition of salt would enhance the synthesis of the rigid ^2,6AnHC.8PF6 homo[2]catenane, we investigated the effects of the addition of tetrabutylammonium hexafluorophosphate (TBAPF6) salt on the formation of the ^2,6AnDB^2+⊂^2,6AnBox^4+ inclusion complex. […] Remarkably, the change in color of the solution from yellow to red implies^38 an increase in the strength of the ^2,6AnDB^2+⊂^2,6AnBox^4+ host-guest complex. In order to estimate the magnitude of the association constant between ^2,6AnDB^2+ and ^2,6AnBox^4+, we prepared (FIG. 2A-2C, Scheme 8) an anthracene-based dicationic model DM^2+. […] Consequently, the efficiency of the catenane synthesis is also found to be sensitive to the addition of TBAPF6. At a salt concentration of 250 mM, the homo[2]catenane ^2,6AnHC.8PF6 was prepared by mixing ^2,6AnBox.4PF6, ^2,6AnDB.2PF6, and ^2,6AnBPY in a 1:2:2 molar ratio in MeCN resulting in an isolated yield of up to 40%. See Scheme 2. The ^1H NMR spectrum of ^2,6AnHC^8+ was recorded at room temperature in CD3CN. Only three signals are observed which can be assigned to the pyridinium, methylene, and phenylene protons. All other resonances associated with the anthracene units disappear or are broadened at room temperature. In the temperature dependent 41 NMR spectra (data not shown), the signals for the anthracene protons reappear at low temperature and have been assigned based on 2D ROESY NMR spectroscopic measurements. These experiments confirm the dynamic nature of the homo[2]catenane in which the two mechanically interlocked rings undergo relative co-conformational changes at room temperature. The catenane was also characterized by high-resolution mass spectrometry (HR-MS). A characteristic peak corresponding to [M-3 PF6]^3+ is present in the mass spectrum (data no shown) at m/z of 823.7819 which compares well with the calculated value for m/z of 823.7814.
All reagents were purchased from commercial suppliers (Aldrich or Fisher) and used without further purification. Anthracene derivatives, 9,10-bis(4-pyridyl)anthracene (^9.^10AnBPY) and 2,6-bis(4-pyridyl)anthracene (^2,6AnBPY) were synthesized following^1,2 reports in the literature. All reactions and manipulations were carried out under a dry N2 atmosphere using standard Schlenk. Thin-layer chromatography (TLC) was performed on silica gel 60 F254 TLC plates (Merck). Column chromatography was carried out using CombiFlash® Automation Systems (Teledyne ISCO) employing both normal phase (RediSep Rf Gold® Normal-Phase Silica) and reverse phase (RediSep Rf Gold® Reversed-phase C18). […]

[3] = reported in the literature; cited from earlier work
[4] = system: MIA PACA2 cancer cells; experiment: Cell growth / toxicity by phase contrast imaging over 48 hours; assay type: cell-based; details: any concentration tested
Method: Cells were cultured for 4 hours then treated with the compounds at a range of concentrations. Upon treatment, cells were placed in a BioTek LionheartFX system, where they were imaged every 20 minutes for 48 hours, under standard culture conditions (37° C., 5% CO2). Phase contrast images were processed and analyzed with BioTek Gen5 analysis software to identify cell number at the start and end of the culture time. There was no significant difference in percent growth either between the two compounds or between the different concentrations and the untreated (0 mM) control.
Cells were grown in standard DMEM (supplemented with 10% Fetal Bovine Serum and 1% Penicillin-Streptomycin, supplier=Corning). Cells were seeded into imaging coverglass chamber 40 hours prior to treatment. Compounds were resuspended in deionized H2O then diluted to the final concentration in media. Cells were treated with compounds for 6 hours prior to imaging.

Structure (SMILES): c1ccc2c3c4ccccc4c(c2c1)-c1cc[n+](cc1)Cc1ccc(cc1)C[n+]1ccc(cc1)-c1c2ccccc2c(c2ccccc12)-c1cc[n+](cc1)Cc1ccc(cc1)C[n+]1ccc-3cc1 [^9,10AnBox^4+]
- Φ (PL quantum yield) ([1]; 4 × 10^−7 M, MeCN): 1.3%
- λabs ([1]; 4 × 10^−7 M, MeCN): 415 nm
- λem ([1]; 4 × 10^−7 M, MeCN): 566 nm
- τ (emission lifetime) ([1]; 4 × 10^−7 M, MeCN): 8.7 ns
- Stokes shifts (δ) ([1]; DMF, 4 × 10^−7 M): 6793 cm⁻¹
- λabs ([1]; DMF, 4 × 10^−7 M): 402 nm
- λem ([1]; DMF, 4 × 10^−7 M): 576 nm
- λexc ([1]; DMF, 4 × 10^−7 M): 414 nm
- Stokes shifts (δ) ([1]; EtOH, 4 × 10^−7 M): 6502 cm⁻¹
- λabs ([1]; EtOH, 4 × 10^−7 M): 409 nm
- λem ([1]; EtOH, 4 × 10^−7 M): 574 nm
- λexc ([1]; EtOH, 4 × 10^−7 M): 418 nm
- Stokes shifts (δ) ([1]; H2O, 4 × 10^−7 M): 6199 cm⁻¹
- λabs ([1]; H2O, 4 × 10^−7 M): 419 nm
- λem ([1]; H2O, 4 × 10^−7 M): 566 nm
- λexc ([1]; H2O, 4 × 10^−7 M): 419 nm
- Stokes shifts (δ) ([1]; Me2SO, 4 × 10^−7 M): 6966 cm⁻¹
- λabs ([1]; Me2SO, 4 × 10^−7 M): 403 nm
- λem ([1]; Me2SO, 4 × 10^−7 M): 570 nm
- λexc ([1]; Me2SO, 4 × 10^−7 M): 408 nm
- Stokes shifts (δ) ([1]; MeCN, 4 × 10^−7 M (Table 2)): 6371 cm⁻¹
- λabs ([1]; MeCN, 4 × 10^−7 M (Table 2)): 410 nm
- λem ([1]; MeCN, 4 × 10^−7 M (Table 2)): 566 nm
- λexc ([1]; MeCN, 4 × 10^−7 M (Table 2)): 416 nm
- Stokes shifts (δ) ([1]; MeOH, 4 × 10^−7 M): 6282 cm⁻¹
- λabs ([1]; MeOH, 4 × 10^−7 M): 402 nm
- λem ([1]; MeOH, 4 × 10^−7 M): 565 nm
- λexc ([1]; MeOH, 4 × 10^−7 M): 417 nm

Structure (SMILES): c1ccc(C[n+]2ccc(-c3ccc4cc5cc(-c6ccncc6)ccc5cc4c3)cc2)cc1 [MM^+]
- binding constant Ka [2]: 540 M⁻¹
- association constant Ka [2]: 102 M⁻¹

Structure (SMILES): BrCc1ccc(C[n+]2ccc(-c3c4ccccc4c(-c4cc[n+](Cc5ccc(CBr)cc5)cc4)c4ccccc34)cc2)cc1 [^9,10AnDB^2+]
- charge transfer (CT) absorption band ([1]; MeCN): 450 nm
- absorption band (higher-energy band of the anthracene moiety) ([1]; MeCN): 330 nm

Structure (SMILES): c1ccc2cc3ccccc3cc2c1 [anthracene, reference compound]
- emission lifetime [3]: ~18 ns
- association constant Ka [2]: 125 M⁻¹

Structure (SMILES): BrCc1ccc(C[n+]2ccc(-c3ccc4cc5cc(-c6cc[n+](Cc7ccc(CBr)cc7)cc6)ccc5cc4c3)cc2)cc1 [^2,6AnDB^2+]
- Φ (PL quantum yield) ([1]; 4 × 10^−7 M, MeCN): 7.0%
- λabs ([1]; 4 × 10^−7 M, MeCN): 453 nm
- λem ([1]; 4 × 10^−7 M, MeCN): 542 nm
- τ (emission lifetime) ([1]; 4 × 10^−7 M, MeCN): 10 ns
- charge transfer (CT) absorption band ([1]; MeCN): 450 nm
- absorption band (higher-energy band of the anthracene moiety) ([1]; MeCN): 330 nm
- concentration dependence of excimer/exciplex emission ([1]; from high concentration to high dilution (10^−8 M)): absence of excimer emission at high concentration
- association constant Ka [2]: 42 M⁻¹

Structure (SMILES): c1ccc(C[n+]2ccc(-c3ccc4cc5cc(-c6cc[n+](Cc7ccccc7)cc6)ccc5cc4c3)cc2)cc1 [DM^2+]
- binding constant Ka [2]: 611 M⁻¹
- association constant Ka [2]: 40 M⁻¹

Structure (SMILES): c1ccc2c(-c3ccncc3)c3ccccc3c(-c3ccncc3)c2c1 [^9,10AnBPY, 9,10-bis(4-pyridyl)anthracene, reference compound]
- absorption band (higher-energy band of the anthracene moiety) ([1]; MeCN): 290 nm
- absorption, vibronic peak of the anthracene moiety (lower-energy) ([1]; MeCN): 400 nm
- emission band, vibronic peaks of the anthracene moiety [1]: 440 nm

Structure (SMILES): c1cc(-c2ccc3cc4cc(-c5ccncc5)ccc4cc3c2)ccn1 [^2,6AnBPY, 2,6-bis(4-pyridyl)anthracene, reference compound]
- absorption band (higher-energy band of the anthracene moiety) ([1]; MeCN): 290 nm
- absorption, vibronic peak of the anthracene moiety (lower-energy) ([1]; MeCN): 400 nm
- emission band, vibronic peaks of the anthracene moiety [1]: 440 nm

Structure (SMILES): [Cl-].[Cl-].[Cl-].[Cl-].c1cc2ccc1C[n+]1ccc(cc1)-c1ccc3cc4cc(ccc4cc3c1)-c1cc[n+](cc1)Cc1ccc(cc1)C[n+]1ccc(cc1)-c1ccc3cc4cc(ccc4cc3c1)-c1cc[n+](cc1)C2 [^2,6AnBox⋅4Cl]
- toxicity to the cells [4]: Neither the catenane (^2,6AnHC.8Cl) nor the cyclophane (^2,6AnBox⋅4Cl) are toxic to the cells at any concentration tested
